{"source": "patent US20110028400A1", "about": "“SULFATED UNSATURATED DISACCHARIDIC CHONDROITIN SULFATE IN CONNECTIVE TISSUE PROTECTION AND REPAIR” (NESTEC S.A., priority 2008, published 2011)", "key": {"[1]": {"test_system": "explants of articular cartilage", "assay": "IL1β-induced GAG (35S) release from cultured bovine articular cartilage explants", "assay_type": "cell-based", "conditions": "for slowing down cytokine-induced cartilage destruction in vitro: comparison among chondroitin disaccharides and higher molecular weight forms", "excerpt": "It was investigated here whether normal commercially available chondroitin sulphate and different low molecular weight forms of chondroitin sulphate including disaccharides could inhibit the degradation of aggrecan in cultured explants of articular cartilage. Explants from healthy bovine articular cartilage were put in culture and loaded with S^35. S^35 is incorporated in the glycosaminoglycan chains of the aggrecan molecules of the cartilage and its release in the media is considered as a surrogate marker of glycosaminoglycan release and aggrecan catabolism. However, explants from healthy bovine articular cartilage naturally display a very low catabolic activity which is not ideal to test the anti-catabolic activity of potential bioactives. To improve the sensitivity of the assay, the explants were cultured in presence of IL1β, a pro-inflammatory cytokine, known to act as a potent inducer of MMP and aggrecanase activities. The different low molecular weight forms of chondroitin sulphate were added to the culture media together with IL1β to see whether they can decrease the IL1β-induced aggrecan catabolism. In addition, the effects of the low molecular weight forms of chondroitin sulphate on IL1β-induced NO production were also investigated. Nitric oxide is a reactive oxygen species known to participate in the progression of osteoarthritis.\n(§1) The articular cartilage explants were dissected out of the metacarpophalangeal joint of old cows (8-10 years). The skin was removed from the feet. The articulation was opened transversally. Intraarticular ligaments were transected. […] Under the hood, similar quantities of cartilage were distributed between the wells of a 24-wells plate containing 500 μl of medium (DMEM+20% FBS, 1% penicillin/streptomycin, 0.1% gentamycin) per well. […]\nThe following protocol is based on Campbell et al., Arch Biochem Biophys 234(1): 275-289 and Hascall V C et al., Arch Biochem Biophys 224(1): 206-223. […] After 72 hours, several washes were performed to eliminate the non-incorporated radioactivity. The explants were then treated for 72 hours, after which the supernatants were collected and the amount of radioactivity released in the medium was measured with a beta counter, as a marker of GAG catabolism. The radioactivity present in the explants was also measured and used to normalize the amount of radioactivity released into the media. The radioactivity was expressed in DPM ([…] per minute) and the GAG release is assessed by the following formula:\nGAG release=radioactivity in the supernatants/(radioactivity in the supernatants+radioactivity in the explants)"}, "[2]": {"assay": "rat intestinal loop model, bioavailability", "assay_type": "in vivo"}, "[3]": {"test_system": "explants of articular cartilage", "assay": "IL1β-induced NO production in cultured bovine articular cartilage explants", "assay_type": "cell-based", "conditions": "500 μg/ml, with 50 ng/ml IL1β, 72 hours, 4 experiments", "excerpt": "It was investigated here whether normal commercially available chondroitin sulphate and different low molecular weight forms of chondroitin sulphate including disaccharides could inhibit the degradation of aggrecan in cultured explants of articular cartilage. Explants from healthy bovine articular cartilage were put in culture and loaded with S^35. S^35 is incorporated in the glycosaminoglycan chains of the aggrecan molecules of the cartilage and its release in the media is considered as a surrogate marker of glycosaminoglycan release and aggrecan catabolism. However, explants from healthy bovine articular cartilage naturally display a very low catabolic activity which is not ideal to test the anti-catabolic activity of potential bioactives. […]\nas §1, with “years).” for “years). The skin was removed from the feet. The articulation was opened transversally. Intraarticular ligaments were transected.”\nFor NO measurements a protocol based on Gilliam et al., Anal Biochem 212(2): 359-365 was used. […] After ten minutes, absorbance was measured at 538 nm. To quantify the amount of NO in the supernatants, a standard curve was prepared using sodium nitrite (0-60 μM)."}, "[4]": {"test_system": "knee OA", "conditions": "cited from earlier work"}, "[5]": {"test_system": "cartilage damages and proteoglycan loss", "conditions": "20 mg/kg body weight/day, 11 days before to 21 days after chymopapain injection; cited from earlier work"}, "[6]": {"test_system": "knee synovial fluids", "conditions": "10 days of 800 mg once a day; cited from earlier work"}, "[7]": {"test_system": "proteoglycan depletion in cartilage", "conditions": "100 and 300 mg/kg body weight/day, starting 2 weeks before bradikinin injections; cited from earlier work"}}, "note": "Where a name gives a salt, the structure may show the parent alone.", "data": [{"compound": "CC(=O)N[C@H]1C(O)O[C@H](CO)[C@H](OS(=O)(=O)O)[C@@H]1O", "note": "(stereo partly shown) [GalNac 4S, 4 sulfated N-acetylgalactosamine]", "values": [{"measurement": "IL1β-induced GAG release (percentage of radioactivity release)", "setting": "[1]; dose range 500-50-5 μg/ml, with 50 ng/ml IL1β, 72 hours, FIG. 2", "value": "no effect"}]}, {"compound": "CC(=O)N[C@H]1C(O)O[C@H](CO)[C@H](OS(=O)(=O)O)[C@@H]1O[C@@H]1OC(C(=O)O)=C[C@H](O)[C@H]1O", "note": "(stereo partly shown) [Δdi4S, 4-sulfated unsaturated disaccharidic chondroitin sulfate]", "values": [{"measurement": "bioavailability", "setting": "[2]", "value": "more bioavailable than regular high molecular weight chondroitin sulfate"}, {"measurement": "amount of NO in the supernatants compared to IL1β alone", "setting": "[3]", "value": "significantly (p<0.05) decreased"}, {"measurement": "amount of GAG released in the supernatants compared to IL1β alone", "setting": "[1]; 500 μg/ml, with 50 ng/ml IL1β, 72 hours, 4 independent experiments", "value": "significantly (p<0.05) decreased"}, {"measurement": "slowing down cytokine-induced cartilage destruction in vitro", "setting": "[1]", "value": "by far the most effective compound"}]}, {"compound": "Chondroitin sulfate [CS]", "values": [{"measurement": "improvement of the Lesquesne index versus diclofenac", "setting": "[4]; 400 mg of CS 3 times a day, double-blind RCT", "value": "slower than 50 mg of diclofenac"}, {"measurement": "mean and minimum joint space width and joint space surface area on X-rays", "setting": "[4]; 800 mg CS, one year double-blind placebo-controlled RCT", "value": "decreased significantly in the placebo group but not in the 800 mg CS group"}, {"measurement": "joint space narrowing", "setting": "[4]; 800 mg once a day, 2-year double-blind RCT, placebo mean joint space loss 0.14 mm", "value": "prevented joint space narrowing"}, {"measurement": "function versus placebo", "setting": "[4]; 1000 mg per day, one trial", "value": "did not improve function better than placebo"}, {"measurement": "osteoarthritic symptoms, meta-analyses", "setting": "[4]; 3 meta-analyses", "value": "superior to placebo"}, {"measurement": "spontaneous pain and mobility versus placebo", "setting": "[4]; 6 of 7 double-blind placebo-controlled RCTs, 3 to 24 months, knee OA", "value": "more efficient than placebo"}, {"measurement": "pain and mobility, dose comparison", "setting": "[4]; 800 and 1200 mg once a day", "value": "more effective on pain and mobility than placebo or 200 mg"}, {"measurement": "mobility, 1200 mg once a day versus 400 mg three times a day", "setting": "[4]; both superior to placebo", "value": "No statistical significant difference"}, {"measurement": "time before patients detect a significant difference in pain and mobility", "setting": "[4]; human, in vivo", "value": "at least 2 weeks"}, {"measurement": "time required to reach full symptom relief", "setting": "[4]; human, in vivo", "value": "up to 2 months"}, {"measurement": "mobility after intermittent treatment", "setting": "[4]; two 3 month-long periods in a year, 800 mg once a day", "value": "lasting effects by improving mobility compared to placebo"}, {"measurement": "persistence of effects after termination of treatment", "setting": "[4]; versus diclofenac", "value": "persisted longer than diclofenac effects"}, {"measurement": "cartilage damages and proteoglycan loss", "setting": "[5]", "value": "decreased cartilage damages and proteoglycan loss"}, {"measurement": "activities of collagenase, phospholipase A2 and N-acetylglucosaminidase in knee synovial fluids", "setting": "[6]", "value": "decreasing"}, {"measurement": "viscosity and hyaluronate concentration in knee synovial fluids", "setting": "[6]", "value": "significantly increased"}, {"measurement": "slowing down cytokine-induced cartilage destruction in vitro", "setting": "[1]", "value": "did not have any significant effect"}]}, {"compound": "chondroitin-6 sulfate", "values": [{"measurement": "proteoglycan depletion in cartilage", "setting": "[7]", "value": "reduced or prevented"}]}]}
